From ChEMBL document CHEMBL5212743, “Selectivity Literature for EUbOPEN Chemogenomics Library wave 3” (2023) come the findings set out here.

For one assay, the target named is Activated CDC42 kinase 1 (Homo sapiens, UniProt Q07912). The experiment in a line: Selectivity interaction (KinaseProfiler™ (Millipore)) EUB0000640a TNK2. Particulars: at 1 µM.
Assay [1] deals with Proto-oncogene tyrosine-protein kinase ROS (Homo sapiens) (UniProt P08922). Briefly: Selectivity interaction (KinaseProfiler™ (Millipore)) EUB0000640a ROS1. Particulars: at 1 µM.
Assay [2] has as its target T1, Cytoplasmic tyrosine-protein kinase BMX (Homo sapiens) (UniProt P51813).
T1 sequence (whole entry): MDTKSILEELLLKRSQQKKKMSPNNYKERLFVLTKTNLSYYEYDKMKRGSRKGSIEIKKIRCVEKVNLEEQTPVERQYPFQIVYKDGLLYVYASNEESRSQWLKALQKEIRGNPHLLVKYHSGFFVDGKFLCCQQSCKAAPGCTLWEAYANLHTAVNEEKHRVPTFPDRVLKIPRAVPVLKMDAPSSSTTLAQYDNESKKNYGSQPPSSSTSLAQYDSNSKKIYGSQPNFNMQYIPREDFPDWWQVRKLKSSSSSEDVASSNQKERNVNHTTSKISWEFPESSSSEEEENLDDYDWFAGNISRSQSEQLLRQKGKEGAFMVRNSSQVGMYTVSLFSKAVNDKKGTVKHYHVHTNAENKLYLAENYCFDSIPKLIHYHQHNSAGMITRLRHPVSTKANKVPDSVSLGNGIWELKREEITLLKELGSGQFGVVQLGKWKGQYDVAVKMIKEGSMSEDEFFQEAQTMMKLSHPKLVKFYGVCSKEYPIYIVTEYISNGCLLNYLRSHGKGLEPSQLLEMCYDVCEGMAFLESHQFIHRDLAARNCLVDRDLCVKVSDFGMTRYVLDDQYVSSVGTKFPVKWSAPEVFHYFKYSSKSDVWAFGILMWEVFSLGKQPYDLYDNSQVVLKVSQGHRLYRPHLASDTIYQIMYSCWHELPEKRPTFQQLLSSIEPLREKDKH
Briefly: Selectivity interaction (KinaseProfiler™ (Millipore)) EUB0000640a BMX. To be noted: at 1 µM.

For assay [3], the target named is Tyrosine-protein kinase TXK (Homo sapiens) (UniProt P42681). Briefly: Selectivity interaction (KinaseProfiler™ (Millipore)) EUB0000640a TXK. To be noted: at 1 µM.
The target in assay [4] is T2, Cyclin-G-associated kinase (Homo sapiens) (UniProt O14976).
T2 sequence (whole entry): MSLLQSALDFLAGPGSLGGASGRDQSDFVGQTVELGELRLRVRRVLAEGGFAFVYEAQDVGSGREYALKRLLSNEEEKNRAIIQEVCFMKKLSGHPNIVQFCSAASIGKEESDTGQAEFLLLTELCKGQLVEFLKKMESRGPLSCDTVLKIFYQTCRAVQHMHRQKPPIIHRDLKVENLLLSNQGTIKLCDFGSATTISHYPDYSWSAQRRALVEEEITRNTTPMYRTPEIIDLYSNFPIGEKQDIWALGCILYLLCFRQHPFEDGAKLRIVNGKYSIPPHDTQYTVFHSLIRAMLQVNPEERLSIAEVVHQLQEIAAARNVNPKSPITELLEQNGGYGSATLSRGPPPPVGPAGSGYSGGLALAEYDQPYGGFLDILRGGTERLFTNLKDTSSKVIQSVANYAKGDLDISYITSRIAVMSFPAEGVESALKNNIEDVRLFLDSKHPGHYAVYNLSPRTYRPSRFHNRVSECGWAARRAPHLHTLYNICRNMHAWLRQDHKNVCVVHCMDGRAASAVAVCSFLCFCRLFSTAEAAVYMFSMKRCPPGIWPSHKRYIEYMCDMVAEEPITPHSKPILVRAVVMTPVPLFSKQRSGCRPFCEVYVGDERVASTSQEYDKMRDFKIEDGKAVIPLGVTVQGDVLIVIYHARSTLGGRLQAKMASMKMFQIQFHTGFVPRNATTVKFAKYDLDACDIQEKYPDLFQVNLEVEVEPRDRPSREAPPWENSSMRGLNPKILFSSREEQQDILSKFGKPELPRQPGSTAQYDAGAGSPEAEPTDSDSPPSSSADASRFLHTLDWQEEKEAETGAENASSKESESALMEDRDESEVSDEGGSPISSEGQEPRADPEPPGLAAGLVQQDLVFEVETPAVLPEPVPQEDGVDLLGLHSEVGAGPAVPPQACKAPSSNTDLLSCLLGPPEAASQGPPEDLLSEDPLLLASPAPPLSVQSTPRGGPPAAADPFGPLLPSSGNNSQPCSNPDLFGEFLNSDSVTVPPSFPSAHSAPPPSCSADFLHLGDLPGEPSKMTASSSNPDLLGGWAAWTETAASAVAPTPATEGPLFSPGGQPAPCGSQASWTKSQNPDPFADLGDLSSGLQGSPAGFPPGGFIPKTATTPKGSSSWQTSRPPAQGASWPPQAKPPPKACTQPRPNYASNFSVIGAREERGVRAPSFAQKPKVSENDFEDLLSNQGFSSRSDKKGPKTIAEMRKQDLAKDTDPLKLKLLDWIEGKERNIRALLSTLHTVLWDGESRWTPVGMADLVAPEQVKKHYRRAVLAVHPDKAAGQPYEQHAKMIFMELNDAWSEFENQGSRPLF
The experiment in a line: Selectivity interaction (KinomeScan (DiscoverX)) EUB0000691a GAK. Particulars: at 10 µM.

Assay [5] addresses Serine/threonine-protein kinase 16 (Homo sapiens, UniProt O75716). Briefly: Selectivity interaction (KinomeScan (DiscoverX)) EUB0000691a STK16. To be noted: at 10 µM.
For assay [6], the target named is Dual specificity protein kinase TTK (Homo sapiens) (UniProt P33981). Briefly: Selectivity interaction (KinomeScan (DiscoverX)) EUB0000691a TTK. Particulars: at 10 µM.
Assay [7] concerns the target Dual specificity mitogen-activated protein kinase kinase 4 (Homo sapiens) (UniProt P45985). The experiment in a line: Selectivity interaction (KinomeScan (DiscoverX)) EUB0000691a MAP2K4. Particulars: at 10 µM.
In assay [8] the target is Phosphatidylinositol 3-kinase C2 domain-containing subunit gamma (Homo sapiens) (UniProt O75747). The experiment in a line: Selectivity interaction (KinomeScan (DiscoverX)) EUB0000691a PIK3C2G. Particulars: at 10 µM.
In assay [9] the target is Tyrosine-protein kinase JAK1 (Homo sapiens, UniProt P23458). Briefly: Selectivity interaction (KinomeScan (DiscoverX)) EUB0000691a JAK1@kinase 1. Particulars: at 10 µM.
For assay [10], the target named is RNA-binding protein FXR1 (Homo sapiens) (UniProt P51114). Briefly: Selectivity interaction (Reader proteins panel (DSF assay)) EUB0000034d FXR1.
Assay [11] has as its target WD repeat-containing protein 5 (Homo sapiens) (UniProt P61964). The experiment in a line: Selectivity interaction (Reader proteins panel (DSF assay)) EUB0000034d WDR5.
Assay [12] has as its target Polycomb protein EED (Homo sapiens) (UniProt O75530). Briefly: Selectivity interaction (Reader proteins panel (DSF assay)) EUB0000034d EED.
The next assay addresses Peregrin (Homo sapiens) (UniProt P55201). The experiment in a line: Selectivity interaction (Reader proteins panel (DSF assay)) EUB0000034d BRPF1. For orientation: In DSF a fluorescence change marks the thermal transition of the protein.
Assay [13] addresses AT-rich interactive domain-containing protein 4A (Homo sapiens) (UniProt P29374). The experiment in a line: Selectivity interaction (Reader proteins panel (DSF assay)) EUB0000034d ARID4A.
The target in assay [14] is E3 ubiquitin-protein ligase UHRF1 (Homo sapiens) (UniProt Q96T88). The experiment in a line: Selectivity interaction (Reader proteins panel (DSF assay)) EUB0000034d UHRF1.
Assay [15] concerns the target Tudor domain-containing protein 3 (Homo sapiens) (UniProt Q9H7E2). Briefly: Selectivity interaction (Reader proteins panel (DSF assay)) EUB0000034d TDRD3.
Assay [16] addresses Histone-lysine N-methyltransferase SETD2 (Homo sapiens, UniProt Q9BYW2). Briefly: Selectivity interaction (Methyltransferase panel) EUB0000034d SETD2. Particulars: at 10 µM.
For assay [17], the target named is Staphylococcal nuclease domain-containing protein 1 (Homo sapiens) (UniProt Q7KZF4). Briefly: Selectivity interaction (Reader proteins panel (DSF assay)) EUB0000034d SND1.
The target in assay [18] is Growth/differentiation factor 2 (Homo sapiens) (UniProt Q9UK05). The experiment in a line: Selectivity interaction (Reader proteins panel (DSF assay)) EUB0000034d GDF2.

Chain of Peregrin (Homo sapiens) (P55201 whole entry, the tested form may be a part): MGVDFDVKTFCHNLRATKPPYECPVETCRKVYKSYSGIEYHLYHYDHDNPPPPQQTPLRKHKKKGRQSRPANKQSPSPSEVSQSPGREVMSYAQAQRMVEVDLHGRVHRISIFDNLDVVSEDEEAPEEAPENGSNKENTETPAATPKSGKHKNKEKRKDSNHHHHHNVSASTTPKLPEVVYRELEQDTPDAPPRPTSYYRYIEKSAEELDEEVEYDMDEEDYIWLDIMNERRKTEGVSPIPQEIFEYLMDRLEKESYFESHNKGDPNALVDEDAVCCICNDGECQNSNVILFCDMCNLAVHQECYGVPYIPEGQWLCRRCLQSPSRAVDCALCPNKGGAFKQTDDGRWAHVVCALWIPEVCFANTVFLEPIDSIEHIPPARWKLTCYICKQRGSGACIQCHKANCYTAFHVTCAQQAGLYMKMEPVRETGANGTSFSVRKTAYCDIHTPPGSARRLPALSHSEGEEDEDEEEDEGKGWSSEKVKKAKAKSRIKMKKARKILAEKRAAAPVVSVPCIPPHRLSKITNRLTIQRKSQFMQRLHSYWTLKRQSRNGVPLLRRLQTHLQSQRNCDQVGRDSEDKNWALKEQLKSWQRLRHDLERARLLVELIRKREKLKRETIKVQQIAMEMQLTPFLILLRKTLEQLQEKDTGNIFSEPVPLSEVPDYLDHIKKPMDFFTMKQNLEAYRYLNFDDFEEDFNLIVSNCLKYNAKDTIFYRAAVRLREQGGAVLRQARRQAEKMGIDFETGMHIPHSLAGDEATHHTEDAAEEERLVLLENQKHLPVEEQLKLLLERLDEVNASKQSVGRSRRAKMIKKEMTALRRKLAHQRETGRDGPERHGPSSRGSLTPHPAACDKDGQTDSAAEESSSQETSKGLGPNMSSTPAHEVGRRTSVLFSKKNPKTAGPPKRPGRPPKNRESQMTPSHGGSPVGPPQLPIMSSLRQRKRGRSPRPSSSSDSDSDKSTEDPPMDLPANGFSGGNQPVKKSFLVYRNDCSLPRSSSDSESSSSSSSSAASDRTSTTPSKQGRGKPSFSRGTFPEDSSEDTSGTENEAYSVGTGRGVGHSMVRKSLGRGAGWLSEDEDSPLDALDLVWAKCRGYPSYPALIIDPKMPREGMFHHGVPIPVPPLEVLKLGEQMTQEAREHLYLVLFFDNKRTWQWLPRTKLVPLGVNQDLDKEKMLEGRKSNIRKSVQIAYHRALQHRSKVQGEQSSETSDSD
Chain of Dual specificity mitogen-activated protein kinase kinase 4 (Homo sapiens) (P45985 whole entry, the tested form may be a part): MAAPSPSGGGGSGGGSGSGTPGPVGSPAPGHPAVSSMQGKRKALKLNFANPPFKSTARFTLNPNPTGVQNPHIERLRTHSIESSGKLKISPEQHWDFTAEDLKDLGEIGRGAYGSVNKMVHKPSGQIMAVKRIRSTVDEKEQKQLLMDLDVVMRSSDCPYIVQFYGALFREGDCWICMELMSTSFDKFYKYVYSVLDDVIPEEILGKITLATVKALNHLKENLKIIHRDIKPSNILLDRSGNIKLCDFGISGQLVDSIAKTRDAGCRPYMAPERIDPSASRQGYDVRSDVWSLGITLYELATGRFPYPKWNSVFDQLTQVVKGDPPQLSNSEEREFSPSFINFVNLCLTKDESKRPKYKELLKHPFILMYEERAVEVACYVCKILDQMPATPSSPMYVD
Chain of AT-rich interactive domain-containing protein 4A (Homo sapiens) (P29374 whole entry, the tested form may be a part): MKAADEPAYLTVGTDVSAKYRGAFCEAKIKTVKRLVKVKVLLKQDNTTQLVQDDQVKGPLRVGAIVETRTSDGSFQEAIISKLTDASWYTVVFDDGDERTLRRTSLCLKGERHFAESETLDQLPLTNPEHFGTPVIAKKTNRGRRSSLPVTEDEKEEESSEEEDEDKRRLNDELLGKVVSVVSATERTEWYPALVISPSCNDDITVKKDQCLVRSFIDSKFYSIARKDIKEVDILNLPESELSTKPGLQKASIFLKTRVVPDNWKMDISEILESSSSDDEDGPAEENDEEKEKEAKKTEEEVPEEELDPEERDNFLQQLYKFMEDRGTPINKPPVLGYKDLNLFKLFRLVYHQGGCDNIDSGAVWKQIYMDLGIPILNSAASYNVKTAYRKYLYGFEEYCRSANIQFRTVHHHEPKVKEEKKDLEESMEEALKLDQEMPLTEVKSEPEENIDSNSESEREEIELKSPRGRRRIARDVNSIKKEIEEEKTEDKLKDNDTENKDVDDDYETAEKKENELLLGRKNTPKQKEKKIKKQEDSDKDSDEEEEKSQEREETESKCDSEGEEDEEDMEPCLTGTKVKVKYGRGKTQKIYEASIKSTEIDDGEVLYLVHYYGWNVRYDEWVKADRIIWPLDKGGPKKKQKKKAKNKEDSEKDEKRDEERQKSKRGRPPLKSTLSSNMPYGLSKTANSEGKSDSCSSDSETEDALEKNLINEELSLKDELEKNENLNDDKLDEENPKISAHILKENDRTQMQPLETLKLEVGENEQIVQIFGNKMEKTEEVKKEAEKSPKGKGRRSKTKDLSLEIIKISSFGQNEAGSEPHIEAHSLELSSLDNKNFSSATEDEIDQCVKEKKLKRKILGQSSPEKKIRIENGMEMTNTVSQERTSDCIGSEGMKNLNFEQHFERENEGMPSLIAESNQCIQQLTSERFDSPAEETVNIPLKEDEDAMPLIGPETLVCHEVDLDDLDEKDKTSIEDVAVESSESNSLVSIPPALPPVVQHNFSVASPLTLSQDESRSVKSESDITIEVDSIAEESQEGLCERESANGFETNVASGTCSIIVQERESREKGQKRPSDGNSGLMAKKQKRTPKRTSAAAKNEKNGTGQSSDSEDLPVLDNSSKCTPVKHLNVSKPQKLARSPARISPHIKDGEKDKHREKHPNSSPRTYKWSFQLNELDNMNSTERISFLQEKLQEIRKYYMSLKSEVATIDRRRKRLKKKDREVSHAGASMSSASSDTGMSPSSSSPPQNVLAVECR
Chain of Polycomb protein EED (Homo sapiens) (O75530 2-441 limits assumed): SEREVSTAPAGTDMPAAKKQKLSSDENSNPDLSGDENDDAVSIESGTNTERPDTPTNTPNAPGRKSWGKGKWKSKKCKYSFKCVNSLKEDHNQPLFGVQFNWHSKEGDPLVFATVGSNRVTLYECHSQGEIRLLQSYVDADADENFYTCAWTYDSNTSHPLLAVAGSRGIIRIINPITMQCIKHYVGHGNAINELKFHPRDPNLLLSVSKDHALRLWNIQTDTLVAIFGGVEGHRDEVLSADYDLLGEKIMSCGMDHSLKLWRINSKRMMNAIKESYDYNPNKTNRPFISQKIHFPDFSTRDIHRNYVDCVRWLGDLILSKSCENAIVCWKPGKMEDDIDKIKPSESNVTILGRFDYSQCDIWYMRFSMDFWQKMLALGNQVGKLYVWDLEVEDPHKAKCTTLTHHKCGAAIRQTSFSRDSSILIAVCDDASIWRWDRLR
Chain of E3 ubiquitin-protein ligase UHRF1 (Homo sapiens) (Q96T88 whole entry, the tested form may be a part): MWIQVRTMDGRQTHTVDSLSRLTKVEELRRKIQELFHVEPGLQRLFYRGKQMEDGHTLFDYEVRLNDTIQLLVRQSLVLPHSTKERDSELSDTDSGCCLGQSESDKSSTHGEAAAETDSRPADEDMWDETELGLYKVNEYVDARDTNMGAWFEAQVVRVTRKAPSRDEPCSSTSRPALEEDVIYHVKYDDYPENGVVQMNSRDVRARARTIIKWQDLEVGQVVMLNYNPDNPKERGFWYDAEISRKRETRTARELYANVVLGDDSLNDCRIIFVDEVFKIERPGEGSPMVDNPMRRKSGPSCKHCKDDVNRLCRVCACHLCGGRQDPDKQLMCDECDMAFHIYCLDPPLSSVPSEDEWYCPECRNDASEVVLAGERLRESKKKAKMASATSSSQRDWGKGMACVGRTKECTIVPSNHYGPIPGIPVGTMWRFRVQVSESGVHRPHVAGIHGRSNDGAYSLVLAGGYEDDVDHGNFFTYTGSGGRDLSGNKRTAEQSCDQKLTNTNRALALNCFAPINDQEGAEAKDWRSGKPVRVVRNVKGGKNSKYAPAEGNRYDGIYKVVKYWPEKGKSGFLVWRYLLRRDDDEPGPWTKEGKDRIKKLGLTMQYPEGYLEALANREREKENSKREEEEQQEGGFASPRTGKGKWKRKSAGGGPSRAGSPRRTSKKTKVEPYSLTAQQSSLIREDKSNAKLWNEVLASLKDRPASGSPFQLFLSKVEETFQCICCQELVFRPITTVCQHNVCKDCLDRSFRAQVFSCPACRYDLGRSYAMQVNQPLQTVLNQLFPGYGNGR
Chain of Staphylococcal nuclease domain-containing protein 1 (Homo sapiens) (Q7KZF4 whole entry, the tested form may be a part): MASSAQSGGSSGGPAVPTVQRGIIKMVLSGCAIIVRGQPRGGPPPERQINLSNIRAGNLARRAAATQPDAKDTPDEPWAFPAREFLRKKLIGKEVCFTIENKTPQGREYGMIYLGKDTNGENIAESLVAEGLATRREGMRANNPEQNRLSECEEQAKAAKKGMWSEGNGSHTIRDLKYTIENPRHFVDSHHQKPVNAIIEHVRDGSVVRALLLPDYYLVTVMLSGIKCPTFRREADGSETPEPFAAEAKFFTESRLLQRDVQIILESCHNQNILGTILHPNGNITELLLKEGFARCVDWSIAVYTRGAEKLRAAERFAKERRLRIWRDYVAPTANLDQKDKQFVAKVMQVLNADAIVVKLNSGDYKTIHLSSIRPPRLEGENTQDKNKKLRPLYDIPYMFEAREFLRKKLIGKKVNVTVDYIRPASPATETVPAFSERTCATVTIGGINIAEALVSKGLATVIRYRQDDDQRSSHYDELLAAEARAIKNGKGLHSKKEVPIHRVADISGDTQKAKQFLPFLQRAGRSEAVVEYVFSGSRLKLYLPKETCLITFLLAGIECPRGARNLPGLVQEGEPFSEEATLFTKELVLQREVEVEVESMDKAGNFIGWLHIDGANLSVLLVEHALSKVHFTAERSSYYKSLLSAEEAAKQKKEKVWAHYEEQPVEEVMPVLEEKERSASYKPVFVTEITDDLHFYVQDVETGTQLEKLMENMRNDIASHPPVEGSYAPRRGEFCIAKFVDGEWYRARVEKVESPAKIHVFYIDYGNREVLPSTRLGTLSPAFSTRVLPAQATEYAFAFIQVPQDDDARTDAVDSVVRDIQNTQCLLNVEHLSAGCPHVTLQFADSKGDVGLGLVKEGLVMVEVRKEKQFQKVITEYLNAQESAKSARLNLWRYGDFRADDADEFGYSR

On to `C[C@@H]1CCc2ncc(F)cc2[C@H]2CCCN2c2ccn3ncc(c3n2)C(=O)N1`, for which the % of control was 10% at Activated CDC42 kinase 1, 12% in [1], 15% in [2] and 14% in [3].
As to `COc1ncc(-c2ccc3nccc(-c4ccnnc4)c3c2)cc1NS(=O)(=O)c1ccc(F)cc1F`, the % of control in assay [4] stood at 0.2%; in [5], 3.4%; in assay [6], 4%; in [7] it was 5.9%; in assay [8], 4.4%; in [9], 2.2%.
For the compound `CC(C)Oc1ccc(-c2c[nH]cc2CN(C)CCN)cc1`, the dTm (in assay [10]; in [11]; in assay [12]; at Peregrin (Homo sapiens); in [13]; in assay [14]) was under 2 K in each case. For the same compound, the dTm in assay [15], in [17] and in assay [18] was under 2 K in each case. Besides, the % activity remaining in assay [16] stood at 80%.
